# Results published in patent publication US8703199B2, “Pharmaceutical compositions of adsorbates of amorphous drug” (Bend Research, Inc., priority 2001, dated 2014).
# Experiments:
# Type in all cases: physicochemical
# [1] = in vitro dissolution test, microcentrifuge method, Drug 2 in 0.5 wt % MFD solution; details: for AUC / Drug 2 Concentration: 0.5 wt % MFD solution pH 6.5
# Procedure: The adsorbate of Example 6 and the crystalline drug of Control 2A were evaluated in an in vitro dissolution test using a microcentrifuge method as in Example 2. In this test, 9 mg of the adsorbate of Example 6, or 1.8 mg of Control 2A, was added to a microcentrifuge tube. The tubes were placed in a 37° C. temperature-controlled chamber, and 1.8 mL of 0.5 wt % MFD solution at pH 6.5 and 290 mOsm/kg was added. The samples were quickly mixed using a vortex mixer for about 60 seconds. The samples were centrifuged at 13,000 G at 37° C. for 1 minute. The resulting supernatant solution was then sampled and diluted 1:5 (by volume) with methanol. Diluted samples were analyzed by HPLC at a UV absorbance of 256 nm using a Waters Symmetry C8 column and a mobile phase consisting of 15% (0.2% H3PO4)/85% methanol. The contents of the tubes were mixed on the vortex mixer and allowed to stand undisturbed at 37° C. until the next sample was taken. Samples were collected at 4, 10, 20, 40, 90, and 1200 minutes. […]
# [2] = nuclear magnetic resonance (NMR) test of dissolved Drug 2 in deuterated MFD solution; details: after equilibration for 3 days
# Procedure: The adsorbate of Example 9 and the crystalline drug of Control 2A were evaluated using a nuclear magnetic resonance (NMR) test. In this test, 0.690 mg of the adsorbate of Example 9, or 0.174 mg of Control 2, was added to a microcentrifuge tube. The tubes were placed in a 37° C. temperature-controlled chamber, and 1.7 mL for Example 9, or 1.8 mL for Control 2A, of 2 wt % deuterated MFD solution (d-MFD) at pH 6.5, 37° C., and 290 mOsm/kg was added. The samples were quickly mixed using a vortex mixer for 60 seconds. […] The supernatant was then carefully transferred to an 8 mm glass NMR tube for Example 9. […]
# Fluorine spectra of the sample were recorded at 282.327 MHz on a Varian Gemini 2000, 300 MHz NMR equipped with a Nalorac 8 mm indirect detection probe. […] Drug resonances were integrated relative to the internal standard peak and the drug concentration determined. The given experiment time was calculated from the time the solvent was added to the solid sample until half of the time the spectrum had been acquired by the NMR. For example, when the spectra has been recorded for 2 hours after the sample was equilibrated for 30 minutes the time listed for the NMR result is 90 minutes. […]
# The adsorbates of Example 13 and Example 14 were evaluated using the nuclear magnetic resonance (NMR) test described in Example 11. […]
# [3] = in vitro dissolution test, microcentrifuge method, Drug 2 in PBS (alone or with Pluronic F-127); set-up: AUC / AUC90: concentration or dose not given beside the values; details: for AUC / Drug 2 Concentration: PBS pH 6.5
# Procedure: (§1) The tubes were placed in a 37° C. temperature-controlled chamber, and 1.8 mL phosphate buffered saline (PBS) at pH 6.5 and 290 mOsm/kg was added. The solutions were quickly mixed using a vortex mixer for about 60 seconds, and then centrifuged at 13,000 G at 37° C. for […]. The resulting supernatant solution was then sampled and diluted 1:5 (by volume) with methanol. Diluted samples were analyzed by high-performance liquid chromatography (HPLC) at a UV absorbance of 245 nm using a Phenomenex Kromasil C4 column and a mobile phase of 45% (0.2% H3PO4)/55% acetonitrile. After sampling, the contents of the tubes were mixed on the vortex mixer and allowed to stand undisturbed at 37° C. until the next sample was taken. Samples were collected at 4, 10, 20, 40, 90, and 1200 minutes.
# This example illustrates that combining concentration-enhancing polymer with a drug/substrate adsorbate results in improved concentration enhancement. The adsorbate of Example 9, consisting of 25 wt % Drug 2 and 75 wt % CAB-O-SIL M-5P, was evaluated in an in vitro dissolution test using the procedure describe in Example 2, except that 7.2 mg of the adsorbate, or 1.8 mg of Control 2B, was added to a microcentrifuge tube containing 1.8 mL PBS alone, or 1.8 mL PBS with 3.6 mg of the concentration-enhancing polymer polyoxyethylene-polyoxypropylene block copolymer (Pluronic® F-127, available from BASF Corp.) HPLC analysis of Drug 2 was performed as described in Example 7. […]
# [4] = in vitro dissolution test, microcentrifuge method, Drug 3 in 0.5 wt % MFD solution
# Procedure: The adsorbate of Example 17 was evaluated in an in vitro dissolution test as in Example 2 using 1.44 mg of the adsorbate of […], or 0.36 mg of crystalline Drug 3 (Control 3) in a microcentrifuge tube with 1.8 ml of 0.5 wt % MFD solution. Samples were analyzed by HPLC at a UV absorbance of 254 nm using a Phenomex ODS 20 column and a mobile phase consisting of 60% 0.02 M KH2PO4(pH 3.0)/40% acetonitrile.
# (§2) The drug/substrate adsorbate of Example 35 was evaluated in an in vitro dissolution test using the procedure described in Example 18, except that 1.44 mg of the adsorbate, or 0.36 mg of Control 3B, was added to a microcentrifuge tube containing 1.8 mL 0.5 wt % MFD solution at pH 6.5.
# as §2, with “drug/concentration-enhancing polymer/substrate” for “drug/substrate”, “37” for “35”, “1.96” for “1.44”, “0.39” for “0.36”, “3A,” for “3B,”
# [5] = in vitro dissolution test, microcentrifuge method, Drug 4 in PBS; set-up: AUC / AUC90: concentration or dose not given beside the values
# Procedure: as §1, with “minutes. […]” for “minutes.”
# The adsorbate of Example 23 was evaluated in the in vitro dissolution test described in Example 22. In this test, 45 mg of the adsorbate of Example 23 was added to the microcentrifuge tubes used in the test. Samples for this test were collected at 4, 10, 20, 40, 90, and 1200 minutes.
# [6] = accelerated storage test of physical stability (PXRD)
# Procedure: The stability of Example 1 adsorbate was evaluated in an accelerated storage test. The adsorbate was stored under elevated temperature and humidity conditions to increase the rate of physical changes occurring in the material in order to simulate a longer storage interval in a typical storage environment. Samples of the adsorbate and Control 1B were stored at 40° C./75% relative humidity (RH). Samples were analyzed using a powder X-ray diffraction (PXRD) technique using a Bruker AXS D8 Advance diffractometer as follows. The X-ray tube (KCu, 1.54184 Å) was operated at a voltage of 45 kV and a current of 40 mA with the beam focused through a Göbel mirror and a series of slits into a line focus. Diffractograms were typically collected over the 2□ range of 4° to 40° with a step size of 0.02°/step. Data were collected for a minimum time of 2.4 sec/step. Scans were obtained by holding the tube at a constant angle (to keep the illuminated area of the sample constant) and scanning a scintillation-counter detector fitted with a thin film collimator through 2□. […]
# Samples of the adsorbate of Example 9 were assessed for physical stability by storing them for 12 weeks at 50° C./75% RH. […]
# The physical stability of the adsorbate of Example 23 was evaluated by storing samples of the adsorbate at 40° C. and 75% relative humidity and periodically withdrawing samples and analyzing them by PXRD.
# [7] = 1200 min, 0.5 wt % MFD solution
compound,measurement,setting,value
"CCOC(=O)N1c2ccc(C(F)(F)F)cc2[C@@H](N(Cc2cc(C(F)(F)F)cc(C(F)(F)F)c2)C(=O)OC)C[C@H]1CC [Control 2A, [2R,4S] 4-[(3,5-bis-trifluoromethyl-benzyl)-methoxycarbonyl-amino]-2-ethyl-6-trifluoromethyl-3,4-dihydro-2H-quinoline-1-carboxylic acid ethyl ester]",AUC,[1]; 0 min,0 µg·min/mL
same,Drug 2 Concentration,[1]; 0 min,0 µg/mL
same,AUC,[1]; 4 min,6 µg·min/mL
same,Drug 2 Concentration,[1]; 4 min,3 µg/mL
same,AUC,[1]; 10 min,21 µg·min/mL
same,Drug 2 Concentration,[1]; 10 min,2 µg/mL
same,AUC,[1]; 20 min,71 µg·min/mL
same,Drug 2 Concentration,[1]; 20 min,8 µg/mL
same,AUC,[1]; 40 min,190 µg·min/mL
same,Drug 2 Concentration,[1]; 40 min,4 µg/mL
same,AUC,[1]; 90 min,570 µg·min/mL
same,Drug 2 Concentration,[1]; 90 min,11 µg/mL
same,AUC,[1]; 1200 min,"14,700 min * μg/mL"
same,Drug 2 Concentration,[1]; 1200 min,15 µg/mL
same,AUC90,"[1]; Drug 2, 0.5 wt % MFD solution",570 µg·min/mL
same,"Cmax,90","[1]; Drug 2, 0.5 wt % MFD solution",11000 ng/mL
same,dissolved Drug 2 concentration,[2],13 μgA/mL
"CCOC(=O)N1c2ccc(C(F)(F)F)cc2[C@@H](N(Cc2cc(C(F)(F)F)cc(C(F)(F)F)c2)C(=O)OC)C[C@H]1CC [Control 2B, [2R,4S] 4-[(3,5-bis-trifluoromethyl-benzyl)-methoxycarbonyl-amino]-2-ethyl-6-trifluoromethyl-3,4-dihydro-2H-quinoline-1-carboxylic acid ethyl ester]",AUC,[3]; 0 min,0 µg·min/mL
same,Drug 2 Concentration,[3]; 0 min,<1 μgA/mL
same,AUC,[3]; 4 min,<2 µg·min/mL
same,Drug 2 Concentration,[3]; 4 min,<1 μgA/mL
same,AUC,[3]; 10 min,<8 µg·min/mL
same,Drug 2 Concentration,[3]; 10 min,<1 μgA/mL
same,AUC,[3]; 20 min,<18 µg·min/mL
same,Drug 2 Concentration,[3]; 20 min,<1 μgA/mL
same,AUC,[3]; 40 min,<38 µg·min/mL
same,Drug 2 Concentration,[3]; 40 min,<1 μgA/mL
same,AUC,[3]; 90 min,<88 µg·min/mL
same,Drug 2 Concentration,[3]; 90 min,<1 μgA/mL
same,AUC,[3]; 1200 min,"<1,200 min * μg/mL"
same,Drug 2 Concentration,[3]; 1200 min,<1 μgA/mL
same,AUC90,"[3]; Drug 2, PBS",<88 µg·min/mL
same,C1200,"[3]; Drug 2, PBS",<1 μgA/mL
O=C1Cc2cc(CCN3CCN(c4nsc5ccccc45)CC3)c(Cl)cc2N1 [Control 3A],AUC,"[4]; 0 min, 0.5 wt % MFD solution",0 µg·min/mL
same,Drug 3 Concentration,"[4]; 0 min, 0.5 wt % MFD solution, 0.36 mg crystalline drug added",0 μgA/mL
same,Drug 3 Concentration,"[4]; 1200 min, 0.5 wt % MFD solution, 0.36 mg crystalline drug added",5 μgA/mL
same,Drug 3 Concentration,"[4]; 1200 min, 0.5 wt % MFD solution, 0.39 mg crystalline drug added, pH 6.5",9 μgA/mL
same,C1200,"[4]; Drug 3, 0.5 wt % MFD solution",9 μgA/mL
same,"Cmax,90","[4]; Drug 3, 0.5 wt % MFD solution",3000 ng/mL
O=C1Cc2cc(CCN3CCN(c4nsc5ccccc45)CC3)c(Cl)cc2N1 [Control 3B],AUC,"[4]; 0 min, 0.5 wt % MFD solution",0 µg·min/mL
same,Drug 3 Concentration,"[4]; 0 min, 0.5 wt % MFD solution",0 μgA/mL
same,AUC,"[4]; 4 min, 0.5 wt % MFD solution",0 µg·min/mL
same,Drug 3 Concentration,"[4]; 4 min, 0.5 wt % MFD solution",2 μgA/mL
same,AUC,"[4]; 10 min, 0.5 wt % MFD solution",0 µg·min/mL
same,Drug 3 Concentration,"[4]; 10 min, 0.5 wt % MFD solution",2 μgA/mL
same,AUC,"[4]; 20 min, 0.5 wt % MFD solution",0 µg·min/mL
same,Drug 3 Concentration,"[4]; 20 min, 0.5 wt % MFD solution",2 μgA/mL
same,AUC,"[4]; 40 min, 0.5 wt % MFD solution",100 µg·min/mL
same,Drug 3 Concentration,"[4]; 40 min, 0.5 wt % MFD solution",2 μgA/mL
same,AUC,"[4]; 90 min, 0.5 wt % MFD solution",200 µg·min/mL
same,Drug 3 Concentration,"[4]; 90 min, 0.5 wt % MFD solution",2 μgA/mL
same,AUC,[4]; [7],"2,400 min * μg/mL"
same,Drug 3 Concentration,[4]; [7],2 μgA/mL
same,AUC90,"[4]; Drug 3, 0.5% MFD",200 µg·min/mL
same,C1200,"[4]; Drug 3, 0.5 wt % MFD solution",2 μgA/mL
"COc1ccc2c(c1)c(CC(=O)O)c(C)n2C(=O)c1ccc(Cl)cc1 [Control 4, Indomethacin]",AUC,[5]; 0 min,0 µg·min/mL
same,Drug 4 Concentration,[5]; 0 min,0 μgA/mL
same,AUC,[5]; 4 min,630 µg·min/mL
same,Drug 4 Concentration,[5]; 4 min,320 μgA/mL
same,AUC,[5]; 10 min,"2,600 min * μg/mL"
same,Drug 4 Concentration,[5]; 10 min,340 μgA/mL
same,AUC,[5]; 20 min,"7,300 min * μg/mL"
same,Drug 4 Concentration,[5]; 20 min,610 μgA/mL
same,AUC,[5]; 40 min,"8,100 min * μg/mL"
same,Drug 4 Concentration,[5]; 40 min,460 μgA/mL
same,AUC,[5]; 90 min,"41,700 min * μg/mL"
same,Drug 4 Concentration,[5]; 90 min,480 μgA/mL
same,AUC,[5]; 1200 min,"527,700 min * μg/mL"
same,Drug 4 Concentration,[5]; 1200 min,400 μgA/mL
same,AUC90,[5]; Drug 4,"41,700 min * μg/mL"
"COc1ccc2c(c1)c(CC(=O)O)c(C)n2C(=O)c1ccc(Cl)cc1 [amorphous control, Indomethacin]",crystallization rate,[6]; 4 days at 40° C. and 75% relative humidity,20 %/day
same,crystallinity of the drug,"[6]; after 4 days of storage at 40° C. and 75% relative humidity, PXRD",more than 80%
